From patent US20200223889A1, “Bicyclic Compounds Capable of Binding to Melanocortin 4 Receptor” (Novo Nordisk A/S, priority 2017, published 2020)
pEC50, pKi: −log10 of the molar value. Positions of bridges follow the written chain, without caps; N, C: chain ends. Non-standard residues stand in square brackets, D forms with d. Residues, ends and D or L forms follow the SMILES beside them. Phe(3,4-(OMe)2) = COc1ccc(C[C@H](N)C(=O)O)cc1OC; Phe(4-CN) = N#Cc1ccc(C[C@H](N)C(=O)O)cc1; 1Nal = N[C@@H](Cc1cccc2ccccc12)C(=O)O; 2Nal = N[C@@H](Cc1ccc2ccccc2c1)C(=O)O; Cit = NC(=O)NCCC[C@H](N)C(=O)O; Pen = CC(C)(S)[C@H](N)C(=O)O; Aze = O=C(O)[C@@H]1CCN1

Key:
[1] = target: T1, human MC4R (Homo sapiens, UniProt P32245); test: 125NDP-α-MSH competitive binding to membranes of BHK cells expressing human MC4 receptor (filtration assay); conditions: human MC4R, BHK cell membranes, 125NDP-α-MSH radioligand; read-out: MC4R binding Ki
T1 construct: expressed in transfected cells
T1 sequence (P32245 whole entry): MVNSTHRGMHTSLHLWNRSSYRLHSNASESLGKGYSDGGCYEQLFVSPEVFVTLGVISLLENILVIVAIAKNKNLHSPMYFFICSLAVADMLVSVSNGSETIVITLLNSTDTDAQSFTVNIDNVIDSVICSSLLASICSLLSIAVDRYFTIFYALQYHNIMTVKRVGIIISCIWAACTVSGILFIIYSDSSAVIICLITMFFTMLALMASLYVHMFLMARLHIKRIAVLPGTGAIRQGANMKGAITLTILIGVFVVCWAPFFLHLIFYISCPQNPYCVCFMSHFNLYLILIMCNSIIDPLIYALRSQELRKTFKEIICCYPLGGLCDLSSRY
Summary of the method: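 Displacement of ^125NDP-α-MSH (apx. […] final) was measured by filtration after 2 h at 25 °C, using diluted membranes of stably transfected BHK cells in pH 7.0 HEPES buffer. Compounds spanned 1 μM to 0.001 nM; binding curves were analysed by non-linear regression.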

[2] = target: T1, human MC4R; test: Functional cAMP assay (CisBio HTRF) in BHK cells expressing human MC4R; format: cell-based; conditions: for pEC50: BHK cells expressing human MC4R, '>' = highest dose used with no response, read-out: MC4R cAMP EC50; for MC1R/MC4R cAMP EC50 ratio: MC1R cAMP EC50 divided by MC4R cAMP EC50
Summary of the method: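 Stably transfected BHK cells expressing human MC1R or MC4R; cAMP quantified by HTRF (cAMP-d2/cryptate) after 30 min compound stimulation at 25 °C in DMEM-based buffer with 1 mM IBMX. Compounds were prepared as 10-fold serial dilutions starting at 2 μM (working solution, 2× final). Readout after 1 h at 25 °C; non-linear regression.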

Row | pKi [1] | pEC50 [2] | MC1R/MC4R cAMP EC50 ratio [2] | SMILES
1 | 10.05 | 10.52 | 141 | C[C@@H]1NC(=O)[C@@H]2CSSC[C@H](NC(=O)[C@H](Cc3cccc4ccccc34)NC(=O)[C@H](CCCNC(=N)N)NC(=O)[C@@H](Cc3ccccc3)NC(=O)[C@H](Cc3c[nH]cn3)NC1=O)C(=O)N[C@@H](C)C(=O)N[C@@H](CCCCN)C(=O)N[C@@H](CCCCN)C(=O)N[C@@H](CCCCN)C(=O)N[C@@H](Cc1c[nH]c3ccccc13)C(=O)N2 [Chem. 64, c[c[Cys-Ala-His-D-Phe-Arg-1-Nal- Cys]-Ala-Lys-Lys-Lys-Trp]] (cyclo([1Nal]CAKKKWCAH[dF]R); disulfide 2-8)
2 | 9.33 | 9.38 | 26 | C[C@@H]1NC(=O)[C@@H]2CSSC[C@H](NC(=O)[C@H](Cc3ccc(C#N)cc3)NC(=O)[C@H](CCCNC(=N)N)NC(=O)[C@@H](Cc3ccccc3)NC(=O)[C@H](Cc3c[nH]cn3)NC1=O)C(=O)N[C@@H](C)C(=O)N[C@@H](CCCCN)C(=O)N[C@@H](CCCCN)C(=O)N[C@@H](CCCCN)C(=O)N[C@@H](Cc1c[nH]c3ccccc13)C(=O)N2 [Chem. 65, c[c[Cys-Ala-His-D-Phe-Arg-4-CN- Phe-Cys]-Ala-Lys-Lys-Lys-Trp]] (cyclo(AH[dF]R[Phe(4-CN)]CAKKKWC); disulfide 6-12)
3 | 10.30 | 10.10 | 415 | C[C@@H]1NC(=O)[C@@H]2CSSC[C@H](NC(=O)[C@H](CCCNC(=N)N)NC(=O)[C@H](CCCCN)NC(=O)[C@H](CCCCN)NC(=O)[C@H](CCCCN)NC1=O)C(=O)N1CCC[C@H]1C(=O)N[C@@H](Cc1c[nH]cn1)C(=O)N[C@H](Cc1ccccc1)C(=O)N[C@@H](Cc1c[nH]cn1)C(=O)N[C@@H](Cc1c[nH]c3ccccc13)C(=O)N2 [Chem. 71, c[c[Cys-Pro-His-D-Phe-His-Trp-Cys]- Ala-Lys-Lys-Lys-Arg]] (cyclo(AKKKRCPH[dF]HWC); disulfide 6-12)
4 | 10.52 | 10.52 | 195 | C[C@@H]1NC(=O)[C@@H]2CSSC[C@H](NC(=O)[C@H](CCCNC(=N)N)NC(=O)[C@H](CCCCN)NC(=O)[C@H](CCCCN)NC(=O)[C@H](CCCCN)NC1=O)C(=O)N1CCC[C@H]1C(=O)N[C@@H](Cc1c[nH]cn1)C(=O)N[C@H](Cc1ccccc1)C(=O)N[C@@H](CCCNC(N)=O)C(=O)N[C@@H](Cc1c[nH]c3ccccc13)C(=O)N2 [Chem. 72, c[c[Cys-Pro-His-D-Phe-Cit-Trp-Cys]- Ala-Lys-Lys-Lys-Arg]] (cyclo(AKKKRCPH[dF][Cit]WC); disulfide 6-12)
5 | 10.05 | 9.80 | 136 | C[C@@H]1NC(=O)[C@@H]2CSSC[C@H](NC(=O)[C@H](Cc3c[nH]c4ccccc34)NC(=O)[C@H](CCCCN)NC(=O)[C@H](CCCCN)NC(=O)[C@H](CCCCN)NC1=O)C(=O)N[C@@H](CCCCN)C(=O)N[C@@H](Cc1c[nH]cn1)C(=O)N[C@H](Cc1ccccc1)C(=O)N[C@@H](Cc1c[nH]cn1)C(=O)N[C@@H](Cc1c[nH]c3ccccc13)C(=O)N2 [Chem. 76, c[c[Cys-Lys-His-D-Phe-His-Trp-Cys]- Ala-Lys-Lys-Lys-Trp]] (cyclo(AKKKWCKH[dF]HWC); disulfide 6-12)
6 | 10.70 | 10.40 | 95 | C[C@@H]1NC(=O)[C@@H]2CSSC[C@H](NC(=O)[C@H](CCCNC(=N)N)NC(=O)[C@H](CCCCN)NC(=O)[C@H](CCCCN)NC(=O)[C@H](CCCCN)NC1=O)C(=O)N[C@@H](CCCCN)C(=O)N[C@@H](Cc1c[nH]cn1)C(=O)N[C@H](Cc1ccccc1)C(=O)N[C@@H](Cc1c[nH]cn1)C(=O)N[C@@H](Cc1c[nH]c3ccccc13)C(=O)N2 [Chem. 78, c[c[Cys-Lys-His-D-Phe-His-Trp-Cys]- Ala-Lys-Lys-Lys-Arg]] (cyclo(AKKKRCKH[dF]HWC); disulfide 6-12)
7 | 10.52 | 10.70 | 58 | C[C@@H]1NC(=O)[C@@H]2CSSC[C@H](NC(=O)[C@H](Cc3ccc4ccccc4c3)NC(=O)[C@H](CCCNC(=N)N)NC(=O)[C@@H](Cc3ccccc3)NC(=O)[C@H](Cc3c[nH]cn3)NC1=O)C(=O)N[C@@H](C)C(=O)N[C@@H](CCCCN)C(=O)N[C@@H](CCCCN)C(=O)N[C@@H](CCCCN)C(=O)N[C@@H](Cc1c[nH]c3ccccc13)C(=O)N2 [Chem. 79, c[c[Cys-Ala-His-D-Phe-Arg-2-Nal- Cys]-Ala-Lys-Lys-Lys-Trp]] (cyclo([2Nal]CAKKKWCAH[dF]R); disulfide 2-8)
8 | 10.15 |  | 178 | C[C@@H]1NC(=O)[C@@H]2CSSC[C@H](NC(=O)[C@H](Cc3c[nH]c4ccccc34)NC(=O)[C@H](CCCCN)NC(=O)[C@H](CCCCN)NC(=O)[C@H](CCCCN)NC1=O)C(=O)N1CC[C@H]1C(=O)N[C@@H](Cc1c[nH]cn1)C(=O)N[C@H](Cc1ccccc1)C(=O)N[C@@H](Cc1c[nH]cn1)C(=O)N[C@@H](Cc1c[nH]c3ccccc13)C(=O)N2 [Chem. 82, c[c[Cys-AZE-His-D-Phe-His-Trp-Cys]- Ala-Lys-Lys-Lys-Trp]] (cyclo(AKKKWC[Aze]H[dF]HWC); disulfide 6-12)
9 | 9.72 | 9.23 | 74 | C[C@@H]1NC(=O)[C@@H]2CSSC[C@H](NC(=O)[C@H](Cc3c[nH]c4ccccc34)NC(=O)[C@H](CCCCN)NC(=O)[C@H](CCCCN)NC(=O)[C@H](CCCCN)NC1=O)C(=O)N[C@H](CCCCN)C(=O)N[C@@H](Cc1c[nH]cn1)C(=O)N[C@H](Cc1ccccc1)C(=O)N[C@@H](Cc1c[nH]cn1)C(=O)N[C@@H](Cc1c[nH]c3ccccc13)C(=O)N2 [Chem. 84, c[c[Cys-D-Lys-His-D-Phe-His-Trp- Cys]-Ala-Lys-Lys-Lys-Trp]] (cyclo(AKKKWC[dK]H[dF]HWC); disulfide 6-12)
10 | 10.40 | 9.89 | 362 | C[C@@H]1NC(=O)[C@@H]2CSSC(C)(C)[C@H](NC(=O)[C@H](CCCNC(=N)N)NC(=O)[C@H](CCCCN)NC(=O)[C@H](CCCCN)NC(=O)[C@H](CCCCN)NC1=O)C(=O)N1CCC[C@H]1C(=O)N[C@@H](Cc1c[nH]cn1)C(=O)N[C@H](Cc1ccccc1)C(=O)N[C@@H](Cc1c[nH]cn1)C(=O)N[C@@H](Cc1c[nH]c3ccccc13)C(=O)N2 [Chem. 92, c[c[Pen-Pro-His-D-Phe-His-Trp-Cys]- Ala-Lys-Lys-Lys-Arg]] (cyclo(AKKKR[Pen]PH[dF]HWC); disulfide 6-12)
11 | 10.52 | 10.40 | 456 | C[C@@H]1NC(=O)[C@H]2NC(=O)[C@H](Cc3c[nH]c4ccccc34)NC(=O)[C@H](Cc3c[nH]cn3)NC(=O)[C@@H](Cc3ccccc3)NC(=O)[C@H](Cc3c[nH]cn3)NC(=O)[C@@H]3CCCN3C(=O)[C@H](CSSC2(C)C)NC(=O)[C@H](CCCNC(=N)N)NC(=O)[C@H](CCCCN)NC(=O)[C@H](CCCCN)NC(=O)[C@H](CCCCN)NC1=O [Chem. 93, c[c[Cys-Pro-His-D-Phe-His-Trp-Pen]- Ala-Lys-Lys-Lys-Arg]] (cyclo(AKKKRCPH[dF]HW[Pen]); disulfide 6-12)
12 | 9.60 |  | 26 | COc1ccc(C[C@@H]2NC(=O)[C@H](CCCNC(=N)N)NC(=O)[C@@H](Cc3ccccc3)NC(=O)[C@H](Cc3c[nH]cn3)NC(=O)[C@@H]3CCCN3C(=O)[C@@H]3CSSC[C@H](NC2=O)C(=O)N[C@@H](C)C(=O)N[C@@H](CCCCN)C(=O)N[C@@H](CCCCN)C(=O)N[C@@H](CCCCN)C(=O)N[C@@H](CCCNC(=N)N)C(=O)N3)cc1OC [Chem. 94, c[c[Cys-Pro-His-D-Phe-Arg-3,4- DiMeO-Phe-Cys]-Ala-Lys-Lys-Lys- Arg]] (cyclo(AKKKRCPH[dF]R[Phe(3,4-(OMe)2)]C); disulfide 6-12)

Row | SMILES | pKi [1] | pEC50 [2] | MC1R/MC4R cAMP EC50 ratio [2]
13 | NCCCC[C@@H]1NC(=O)[C@H](CCCCN)NC(=O)[C@@H]2CSSC[C@H](NC(=O)[C@H](Cc3c[nH]c4ccccc34)NC(=O)[C@H](CCCCN)NC(=O)[C@H](CCCCN)NC1=O)C(=O)N1CCC[C@H]1C(=O)N[C@@H](Cc1c[nH]cn1)C(=O)N[C@H](Cc1ccccc1)C(=O)N[C@@H](Cc1c[nH]cn1)C(=O)N[C@@H](Cc1c[nH]c3ccccc13)C(=O)N2 [Chem. 75, c[c[Cys-Pro-His-D-Phe-His-Trp-Cys]- Lys-Lys-Lys-Lys-Trp]] (cyclo(CKKKKWCPH[dF]HW); disulfide 1-7) | 9.96 | 9.36 | 155
14 | NCCCC[C@@H]1NC(=O)[C@H](CCCCN)NC(=O)[C@H](CCCCN)NC(=O)[C@@H]2CSSC[C@H](NC(=O)[C@H](Cc3c[nH]c4ccccc34)NC(=O)[C@H](CCCCN)NC1=O)C(=O)N[C@@H](CCCCN)C(=O)N[C@@H](Cc1c[nH]cn1)C(=O)N[C@H](Cc1ccccc1)C(=O)N[C@@H](Cc1c[nH]cn1)C(=O)N[C@@H](Cc1c[nH]c3ccccc13)C(=O)N2 [Chem. 77, c[c[Cys-Lys-His-D-Phe-His-Trp-Cys]- Lys-Lys-Lys-Lys-Trp]] (cyclo(CKH[dF]HWCKKKKW); disulfide 1-7) | 9.14 |  | 108
15 | NCCCC[C@H]1NC(=O)[C@@H]2CSSC[C@H](NC(=O)[C@H](Cc3c[nH]c4ccccc34)NC(=O)[C@H](Cc3c[nH]cn3)NC(=O)[C@@H](Cc3ccccc3)NC(=O)[C@H](Cc3c[nH]cn3)NC1=O)C(=O)N[C@H](CCCCN)C(=O)N[C@@H](Cc1c[nH]cn1)C(=O)N[C@H](Cc1ccccc1)C(=O)N[C@@H](Cc1c[nH]cn1)C(=O)N[C@@H](Cc1c[nH]c3ccccc13)C(=O)N2 [Chem. 86, c[c[Cys-D-Lys-His-D-Phe-His-Trp- Cys]-D-Lys-His-D-Phe-His-Trp]] (cyclo(C[dK]H[dF]HWC[dK]H[dF]HW); disulfide 1-7) | 8.02 | 7.84 | 10
